Data from paper PMC12388496, “Discovery of (E)-1,3-Diphenyl-2-Propen-1-One Derivatives as Potent and Orally Active NLRP3 Inflammasome Inhibitors for Colitis” (Molecules, 2025).

Key:
[1] = MTT assay, HepaRG cytotoxicity; type: cell-based; details: human, HepaRG cells, n = 3
Method: HepaRG cells in the logarithmic growth phase (10^5 cells/mL), inoculate them into a 96-well plate, and culture overnight in a 37 °C, 5% CO2 incubator. Add compounds at different concentrations and continue culturing for 24 h. Add 20 μL of MTT solution, incubate for 4 h, discard the supernatant, and add DMSO to dissolve.

BMDM cells = assay: MitoTracker/MitoSOX staining and ROS detection (DCFH-DA flow cytometry) in BMDMs; type: cell-based, mouse; details: LPS and Nigericin
Source text: Mitochondrial dysfunction and excessive production of reactive oxygen species (ROS) are key upstream signaling events in the activation of the NLRP3 inflammasome. To investigate whether compound F14 affects mitochondrial damage and ROS production, we performed staining experiments using MitoTracker and MitoSOX, followed by imaging and analysis using a confocal microscope. […] To further verify the effect of F14 on ROS levels, we used flow cytometry to measure intracellular ROS levels in BMDM cells stimulated with Nigericin.
BMDMs were seeded at a density of 1.0 × 10^6 cells per well in a 6-well plate, and the cell treatment was performed as described above. DCFH-DA probe was added to each well at a 1:1000 dilution (prepared in serum-free medium), and the cells were incubated at 37 °C in the dark for 20 min. The cells were gently mixed every 5 min to ensure uniform probe penetration. The cells were washed three times with PBS, and ROS levels were measured using flow cytometry (excitation/emission wavelengths: 488/525 nm).

In the case of `Cc1ccc(C(=O)/C=C/c2cccc(O)c2)c(C)c1` [Compound F14, (E)-1-(2,4-dimethylphenyl)-3-(3-hydroxyphenyl)propyl-2-en-1-one], the IC50 at 24 h [1] is reported as over 50 µM, the “mitochondrial membrane potential and fluorescence intensity of mitochondrial superoxide anions” value (BMDM cells; MitoTracker, MitoSOX) is reported as “no significant improvement” and the “total ROS levels” value (BMDM cells; flow cytometry) is reported as “no significant change”.
